Data: US20080138837A1, “Methods and kits for detecting and measuring ADAMTS13/FXI complexes” (priority 2004, published 2008)
Ends that are not written are not given here. * marks the point of attachment. DABCYL = CN(C)c1ccc(/N=N/c2ccc(C(=O)*)cc2)cc1; EDANS = O=S(=O)(O)c1cccc2c(NCCN*)cccc12; AMC = Cc1cc(=O)oc2cc(N*)ccc12

Assays:
[1] = test system: platelet ADAMTS13; assay: Enhancement of platelet ADAMTS13 activity by treatment with FXIa; type: biochemical, human; details: 0.3 ng/ml FXIa, FIG. 11
Experimental: Washed normal platelets from 200 μL of PRP were resuspended in 1 ml of assay buffer. Washed platelets from 1 ml of PRP from a subject with acquired TTP were resuspended in 50 μL of assay buffer. Normal or TTP platelets (10 μl) were added to 10 mM Tris-HCl pH 8.0 assay buffer (80 μl) or assay buffer containing 0.3 ng/ml of FXIa (80 μl). LVY-AMC substrate (10 μl of 2 mM) was added and the fluorescence was monitored (Ex 360 nm/Em 440 nm) for 1500 seconds. FXIa at 0.3 ng/ml was used as a control.

[2] = test system: ADAMTS13; assay: ADAMTS13 activity in PRP using peptidyl substrates; type: biochemical, human; details: normal PRP 20 μl, 0.8 mM substrate, 37° C., 10 mM Tris-HCl pH 8.0, Ex 360 nm/Em 460 nm, FIG. 3
Experimental: (§1) Blood was collected by venopuncture into collection tubes containing 0.12 M sodium citrate, an anti-coagulant. The citrated blood was centrifuged at 700 rpm for 10 minutes. The supernatant was removed and saved as the platelet rich plasma (PRP) fraction. The PRP was centrifuged at 10,000 rpm for 20 minutes. The supernatant was removed and saved as the platelet poor plasma (PPP) fraction. The pellet contained the platelets, which were washed by resuspending in 10 mM Tris-HCl pH 8.0 buffer and centrifuging at 10,000 rpm for 10 minutes. The isolated platelets were resuspended in buffer and used in experiments.
As discussed above, Furlan et al. reported that some peptidyl-pNA moieties, such as XLY-pNA and XVY-pNA, were not substrates for ADAMTS13. We prepared LVY-pNA and tested it for its ability to be cleaved by ADAMTS13. The results shown in FIG. 2 confirm the findings of Furlan et al., i.e., LVY-pNA was not cleaved by ADAMTS13.
In order to determine the effect of modifying the length of the peptide sequence conjugated to the AMC fluorochrome, normal PRP (20 μl) was incubated at 37° C. with a final concentration of 0.8 mM Suc-LLVY-AMC or LVY-AMC in 10 mM Tris-HCl pH 8.0 buffer in total volume of 200 μl. Fluorescence was measured using a microtiter fluorophotometric plate reader (Ex 360 nm/Em 460 nm).

[3] = test system: form of ADAMTS13 found on platelets; assay: ADAMTS13 activity on isolated platelets using a FRET substrate; type: biochemical, human; details: 8 μg/ml substrate, 37° C., Ex 360 nm/Em 440 nm, FIG. 4
Experimental: as §1
ADAMTS13 activity was measured using a fluorescent substrate attached to a donor moiety and an acceptor moiety that functions by fluorescence resonance energy transfer (FRET). The ADAMTS13 selective substrate, NH2-Arg-Lys(DABCYL)-NLVYMVTGD(EDANS)-Arg-COOH, was used in this example. […] The intact peptidyl substrate has low fluorescence, due to quenching of the […]. Cleavage of the substrate between the tyrosine and methionine of the peptide sequence results in an increase in fluorescence.
Isolated platelets in 10 mM Tris-HCl pH 8.0 assay buffer were incubated with a final concentration of 8 μg/ml of the FRET substrate at 37° C. The fluorescence was measured in a spectrofluorometric plate reader (Ex 360 nm/Em 440 nm). […]

[4] = test system: T1, platelet ADAMTS13
T1 sequence: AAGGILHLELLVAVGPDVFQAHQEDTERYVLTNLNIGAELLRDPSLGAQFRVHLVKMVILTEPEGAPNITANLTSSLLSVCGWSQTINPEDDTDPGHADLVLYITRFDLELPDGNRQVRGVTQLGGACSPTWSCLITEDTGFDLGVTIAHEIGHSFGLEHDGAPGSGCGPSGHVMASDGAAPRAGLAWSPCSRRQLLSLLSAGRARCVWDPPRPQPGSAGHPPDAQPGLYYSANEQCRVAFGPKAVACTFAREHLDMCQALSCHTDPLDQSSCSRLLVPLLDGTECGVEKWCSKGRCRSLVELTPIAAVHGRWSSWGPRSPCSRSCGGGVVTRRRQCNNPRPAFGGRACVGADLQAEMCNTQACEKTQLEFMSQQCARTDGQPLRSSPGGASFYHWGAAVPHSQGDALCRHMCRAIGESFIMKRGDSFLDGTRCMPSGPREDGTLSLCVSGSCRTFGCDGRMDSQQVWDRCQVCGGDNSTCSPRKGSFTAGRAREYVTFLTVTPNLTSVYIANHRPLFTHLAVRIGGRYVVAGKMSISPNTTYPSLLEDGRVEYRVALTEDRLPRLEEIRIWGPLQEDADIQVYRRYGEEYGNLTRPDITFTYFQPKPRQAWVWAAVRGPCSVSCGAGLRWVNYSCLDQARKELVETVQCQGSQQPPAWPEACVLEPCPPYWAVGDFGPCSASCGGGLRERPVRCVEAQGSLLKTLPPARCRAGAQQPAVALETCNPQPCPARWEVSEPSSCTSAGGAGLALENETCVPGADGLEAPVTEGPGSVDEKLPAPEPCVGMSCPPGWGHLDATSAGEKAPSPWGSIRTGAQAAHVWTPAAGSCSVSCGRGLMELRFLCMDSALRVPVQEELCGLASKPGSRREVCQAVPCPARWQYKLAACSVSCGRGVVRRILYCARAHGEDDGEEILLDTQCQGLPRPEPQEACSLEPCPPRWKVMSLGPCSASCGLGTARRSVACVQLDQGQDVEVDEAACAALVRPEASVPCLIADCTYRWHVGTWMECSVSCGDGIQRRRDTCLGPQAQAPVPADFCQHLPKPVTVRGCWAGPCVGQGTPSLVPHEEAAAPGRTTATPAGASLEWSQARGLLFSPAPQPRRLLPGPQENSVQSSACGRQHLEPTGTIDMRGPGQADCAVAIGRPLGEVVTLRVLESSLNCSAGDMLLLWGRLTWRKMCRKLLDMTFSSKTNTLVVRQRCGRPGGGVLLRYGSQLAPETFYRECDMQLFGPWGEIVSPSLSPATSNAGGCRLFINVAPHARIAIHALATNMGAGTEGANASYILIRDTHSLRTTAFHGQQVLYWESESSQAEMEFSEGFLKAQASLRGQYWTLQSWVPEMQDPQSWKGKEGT

[5] = molecular target: T2, NH2-Arg-Lys(DABCYL)-NLVYMVTGD(EDANS)-Arg-COOH
T2 chain: RKNLVYMVTGDR

[6] = molecular target: T3, Leu-Val-Tyr-AMC
T3 chain: LVY

[7] = molecular target: T4, Suc-Leu-Leu-Val-Tyr-AMC
T4 chain: LLVY

FXIa: activated Factor XI, plasma serine protease
increase of ADAMTS13 activity towards LVY-AMC substrate upon treatment of platelets with FXIa ([1]; normal platelets, 1500 seconds): approximately 8 fold
enhancement of activity of platelets by treatment with FXIa ([1]; platelets from PRP of an acquired TTP patient, compared with normal individual): much lesser extent

Leu-Val-Tyr-AMC (Leu-Val-Tyr-{AMC}) [LVY-AMC, fluorogenic peptidyl substrate from Bachem Bioscience Inc; also made by QPR]
cleavage of peptidyl-AMC substrate by ADAMTS13 in PRP [2]: cleaved

NH2-Arg-Lys-(DABCYL)-Asn-Leu-Val-Tyr-Met-Val-Thr-Gly-Asp-(EDANS)-Arg-COOH (H-RK(DABCYL)NLVYMVTGD(EDANS)R-OH; SMILES CSCC[C@H](NC(=O)[C@H](Cc1ccc(O)cc1)NC(=O)[C@@H](NC(=O)[C@H](CC(C)C)NC(=O)[C@H](CC(N)=O)NC(=O)[C@H](CCCCNC(=O)c1ccc(/N=N/c2ccc(N(C)C)cc2)cc1)NC(=O)[C@@H](N)CCCNC(=N)N)C(C)C)C(=O)N[C@H](C(=O)N[C@H](C(=O)NCC(=O)N[C@@H](CC(=O)NCCNc1cccc2c(S(=O)(=O)O)cccc12)C(=O)N[C@@H](CCCNC(=N)N)C(=O)O)[C@@H](C)O)C(C)C) [FRET substrate made for American Diagnostica Inc]
fluorescence on incubation of platelets with FRET substrate (cleavage by platelet ADAMTS13) [3]: increased fluorescence over time

activated Factor XI
ADAMTS13 activity towards LVY-AMC substrate [4]: ADAMTS13 activity was significantly increased (by approximately 8-fold) towards LVY-AMC substrate upon treatment of platelets with FXIa

B1: platelet ADAMTS13 (protein)
chain: T1 sequence
fluorescence over time (FRET substrate cleavage) [5]: incubation of platelets with NH2-Arg-Lys(DABCYL)-NLVYMVTGD(EDANS)-Arg-COOH results in increased fluorescence over time
fluorescence over time (LVY-AMC cleavage) [6]: the activity in platelets was due to ADAMTS13 cleaving the LVY-AMC substrate

B2: recombinant ADAMTS13 (protein)
chain: T1 sequence
fluorescence signal (Suc-LLVY-AMC cleavage) [7]: a greater fluorescence signal was produced by the supernatant from transfected cells verses supernatant from mock transfected cells
